# In patent publication US20250059214A1, “AMIDE-CONTAINING LONP1 INHIBITOR COMPOUNDS, USES AND METHODS” (Pretzel Therapeutics, Inc., priority 2021, published 2025):
# Biological target: LONP1 (NM_004793.4) (Homo sapiens (Human), UniProt P36776)
# Assay: FRET-based assay for LONP1 protease activity using fluorogenic peptide substrate
# Assay type: biochemical
# Conditions: LONP1 15 nM as monomer, substrate 3 μM, 1 hour at 37° C., 15 min pre-incubation with compound; average of a minimum of two repeats
# Experimental: Inhibition of LONP1 protease activity by an inhibitor compound of the disclosure elicits a decrease in the fluorescent signal.
# The LONP1-containing mix (10 μL) was incubated with the test compound for 15 min at 37° C. before adding the peptide-containing mix (5 μL). Solutions were dispensed using a small cassette-Multidrop Combi (Thermo Scientific).
# Each value is based on an average of a minimum of two repeats.
# Sequence of LONP1 (NM_004793.4) (P36776 68-959): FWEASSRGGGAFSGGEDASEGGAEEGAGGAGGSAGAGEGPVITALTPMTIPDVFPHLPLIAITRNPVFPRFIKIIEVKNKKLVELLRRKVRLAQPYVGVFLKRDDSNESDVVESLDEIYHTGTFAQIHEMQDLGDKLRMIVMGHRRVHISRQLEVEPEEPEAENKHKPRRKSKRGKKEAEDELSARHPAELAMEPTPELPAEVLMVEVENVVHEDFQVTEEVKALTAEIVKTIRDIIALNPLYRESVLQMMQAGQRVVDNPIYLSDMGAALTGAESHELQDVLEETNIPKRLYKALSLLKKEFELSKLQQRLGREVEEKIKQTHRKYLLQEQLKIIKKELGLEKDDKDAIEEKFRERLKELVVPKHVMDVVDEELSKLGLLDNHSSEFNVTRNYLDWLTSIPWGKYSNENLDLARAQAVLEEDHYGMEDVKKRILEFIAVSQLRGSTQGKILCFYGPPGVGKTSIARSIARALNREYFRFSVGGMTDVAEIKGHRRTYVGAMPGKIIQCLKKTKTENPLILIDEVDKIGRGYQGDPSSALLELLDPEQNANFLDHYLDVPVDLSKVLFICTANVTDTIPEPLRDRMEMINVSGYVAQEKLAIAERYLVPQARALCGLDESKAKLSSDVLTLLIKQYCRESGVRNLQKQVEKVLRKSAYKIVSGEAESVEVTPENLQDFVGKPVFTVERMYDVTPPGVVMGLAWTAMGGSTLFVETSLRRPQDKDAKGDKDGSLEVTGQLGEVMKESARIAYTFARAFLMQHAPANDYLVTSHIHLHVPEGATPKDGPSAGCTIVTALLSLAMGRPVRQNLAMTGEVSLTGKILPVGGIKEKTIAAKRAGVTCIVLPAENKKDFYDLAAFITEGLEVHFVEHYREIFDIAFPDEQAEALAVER
row,IC50 [nM],SMILES
1,50 to 500,"CC(C)C[C@H](NC(=O)[C@@H](CC(=O)N1CCOCC1)NC(=O)c1cnccn1)B(O)O [Compound 3, ((R)-3-methyl-1-((R)-4-morpholino-4-oxo-2-(pyrazine-2-carboxamido)butanamido)butyl)boronic acid]"
2,50 to 500,"O=C(N[C@H](CC(=O)N1CCOCC1)C(=O)N[C@@H](CCc1ccccc1)B(O)O)c1cnccn1 [Compound 4, ((R)-1-((R)-4-morpholino-4-oxo-2-(pyrazine-2-carboxamido)butanamido)-3-phenylpropyl)boronic acid]"
3,50 to 500,"CCCC[C@H](NC(=O)[C@@H](CC(=O)N1CCOCC1)NC(=O)c1cnccn1)B(O)O [Compound 5, ((R)-1-((R)-4-morpholino-4-oxo-2-(pyrazine-2-carboxamido)butanamido)pentyl)boronic acid]"
4,50 to 500,"Cc1nc(C)c(C(=O)N[C@H](CC(=O)N2CCOCC2)C(=O)N[C@@H](CC(C)C)B(O)O)o1 [Compound 6, ((R)-1-((R)-2-(2,4-dimethyloxazole-5-carboxamido)-4-morpholino-4-oxobutanamido)-3-methylbutyl)boronic acid]"
5,50 to 500,CC(=O)N[C@H](CC(=O)N1CCOCC1)C(=O)N[C@@H](CCCc1ccccc1)B(O)O [Compound 11]
6,50 to 500,"CCC[C@H](NC(=O)[C@@H](CC(=O)N1CCOCC1)NC(=O)c1cnccn1)B(O)O [Compound 18, ((R)-1-((R)-4-morpholino-4-oxo-2-(pyrazine-2-carboxamido)butanamido)butyl)boronic acid]"
7,50 to 500,"CC[C@H](NC(=O)[C@@H](CC(=O)N1CCOCC1)NC(=O)c1cnccn1)B(O)O [Compound 19, ((R)-1-((R)-4-morpholino-4-oxo-2-(pyrazine-2-carboxamido)butanamido)propyl)boronic acid]"
8,50 to 500,CN(C)C(=O)N[C@H](CC(=O)N1CCOCC1)C(=O)N[C@@H](CCCc1ccccc1)B(O)O [Compound 20]
9,< 50,"O=C(N[C@H](CC(=O)N1CCOCC1)C(=O)N[C@@H](CCCc1ccccc1)B(O)O)C1CCCCC1 [Compound 22, ((R)-1-((R)-2-(cyclohexanecarboxamido)-4-morpholino-4-oxobutanamido)-4-phenylbutyl)boronic acid]"
10,< 50,"O=C(N[C@H](CC(=O)N1CCOCC1)C(=O)N[C@@H](CCCc1ccccc1)B(O)O)C1CCOCC1 [Compound 23, ((R)-1-((R)-4-morpholino-4-oxo-2-(tetrahydro-2H-pyran-4-carboxamido)butanamido)-4-phenylbutyl)boronic acid]"
11,500 to 5000,"O=C(N[C@H](CC(=O)N1CCOCC1)C(=O)N[C@@H](Cc1ccccc1)B(O)O)c1cnccn1 [Compound 28, ((R)-1-((R)-4-morpholino-4-oxo-2-(pyrazine-2-carboxamido)butanamido)-2-phenylethyl) boronic acid]"
12,< 50,"O=C(N[C@@H](CCCc1ccccc1)B(O)O)[C@@H](CC(=O)N1CCOCC1)NS(=O)(=O)c1cccc(Cl)c1 [Compound 29, ((R)-1-((R)-2-((3-chlorophenyl)sulfonamido)-4-morpholino-4-oxobutanamido)-4-phenylbutyl)boronic acid]"
13,50 to 500,"O=C(N[C@@H](CCCc1ccccc1)B(O)O)[C@@H](CC(=O)N1CCOCC1)NS(=O)(=O)c1ccccc1Cl [Compound 30, ((R)-1-((R)-2-((2-chlorophenyl)sulfonamido)-4-morpholino-4-oxobutanamido)-4-phenylbutyl)boronic acid]"
14,50 to 500,O=C(N[C@@H](CCCc1ccccc1)B(O)O)[C@@H](CC(=O)N1CCOCC1)NCc1ccccc1 [Compound 31]
15,< 50,"O=C(N[C@H](CC(=O)N1CCOCC1)C(=O)N[C@@H](CCCc1ccccc1)B(O)O)O[C@H]1CCOC1 [Compound 32, ((R)-1-((R)-4-morpholino-4-oxo-2-(((((S)tetrahydrofuran-3-yl)oxy)carbonyl)amino)butanamido)-4-phenylbutyl)boronic acid]"
16,< 50,"O=C(N[C@@H](CCCc1ccccc1)B(O)O)[C@H](CC(=O)N1CCOCC1)NS(=O)(=O)c1ccccc1 [Compound 33, ((R)-1-((S)-4-morpholino-4-oxo-2-(phenylsulfonamido)butanamido)-4-phenylbutyl)boronic acid]"
17,< 50,"O=C(N[C@H](CC(=O)N1CCOCC1)C(=O)N[C@@H](CCCc1ccccc1)B(O)O)c1cc(Cl)ccc1Cl [Compound 35, ((R)-1-((R)-2-(2,5-dichlorobenzamido)-4-morpholino-4-oxobutanamido)-4-phenylbutyl)boronic acid]"
18,< 50,"O=C(N[C@H](CC(=O)N1CCOCC1)C(=O)N[C@@H](CCCc1ccccc1)B(O)O)O[C@@H]1CCOC1 [Compound 36, ((R)-1-((R)-4-morpholino-4-oxo-2-(((((R)-tetrahydrofuran-3-yl)oxy)carbonyl)amino)butanamido)-4-phenylbutyl)boronic acid]"
19,< 50,"O=C(N[C@@H](CCCc1ccccc1)B(O)O)[C@@H](CC(=O)N1CCOCC1)NS(=O)(=O)c1cc(Cl)ccc1Cl [Compound 37, ((R)-1-((R)-2-((2,5-dichlorophenyl)sulfonamido)-4-morpholino-4-oxobutanamido)-4-phenylbutyl)boronic acid]"
20,50 to 500,"CC(C)NC(=O)N[C@H](CC(=O)N1CCOCC1)C(=O)N[C@@H](CCCc1ccccc1)B(O)O [Compound 38, ((R)-1-((R)-2-(3-isopropylureido)-4-morpholino-4-oxobutanamido)-4-phenylbutyl)boronic acid]"
21,50 to 500,"O=C(N[C@@H](CCCc1ccccc1)B(O)O)[C@@H](CC(=O)N1CCOCC1)NS(=O)(=O)c1cnccn1 [Compound 39, ((R)-1-((R)-4-morpholino-4-oxo-2-(pyrazine-2-sulfonamido)butanamido)-4-phenylbutyl)boronic acid]"
22,50 to 500,"O=C(N[C@@H](CCCc1ccccc1)B(O)O)[C@@H](CC(=O)N1CCOCC1)NCCc1ccccc1 [Compound 40, ((R)-1-((R)-4-morpholino-4-oxo-2-(phenethylamino)butanamido)-4-phenylbutyl)boronic acid]"
23,50 to 500,"O=C(N[C@@H](CCCc1ccccc1)B(O)O)[C@@H](CC(=O)N1CCOCC1)NC(=O)N1CCCC1 [Compound 42, ((R)-1-((R)-4-morpholino-4-oxo-2-(pyrrolidine-1-carboxamido)butanamido)-4-phenylbutyl)boronic acid]"
24,50 to 500,"CNC(=O)N[C@H](CC(=O)N1CCOCC1)C(=O)N[C@@H](CCCc1ccccc1)B(O)O [Compound 43, ((R)-1-((R)-2-(3-methylureido)-4-morpholino-4-oxobutanamido)-4-phenylbutyl)boronic acid]"
25,50 to 500,"O=C(N[C@@H](CCCc1ccccc1)B(O)O)[C@@H](CC(=O)N1CCOCC1)NC(=O)N1CC[C@@H](O)C1 [Compound 44, ((R)-1-((R)-2-((R)-3-hydroxypyrrolidine-1-carboxamido)-4-morpholino-4-oxobutanamido)-4-phenylbutyl)boronic acid]"
26,50 to 500,"O=C(N[C@@H](CCCc1ccccc1)B(O)O)[C@@H](CC(=O)N1CCOCC1)NC(=O)N1CC[C@H](O)C1 [Compound 45, ((R)-1-((R)-2-((S)-3-hydroxypyrrolidine-1-carboxamido)-4-morpholino-4-oxobutanamido)-4-phenylbutyl)boronic acid]"
27,50 to 500,O=C(N[C@@H](CCCc1ccccc1)B(O)O)[C@@H](CC(=O)N1CCOCC1)Nc1ccccc1 [Compound 46]
28,> 5000,"O=C(N[C@H](CC(=O)N1CCOCC1)C(=O)N[C@H]1CCOB1O)c1cnccn1 [Compound 47, N—((R)-1-(((R)-2-hydroxy-1,2-oxaborolan-3-yl)amino)-4-morpholino-1,4-dioxobutan-2-yl)pyrazine-2-carboxamide]"
29,50 to 500,"O=C(N[C@@H](CCCc1ccccc1)B(O)O)[C@@H](CC(=O)N1CCOCC1)NC(=O)[C@H]1CCCCO1 [Compound 48, ((R)-1-((R)-4-morpholino-4-oxo-2-((R)-tetrahydro-2H-pyran-2-carboxamido)butanamido)-4-phenylbutyl)boronic acid]"
30,50 to 500,"O=C(N[C@H](CC(=O)N1CCOCC1)C(=O)N[C@@H](CCCc1ccccc1)B(O)O)[C@@H]1CCCCO1 [Compound 49, ((R)-1-((R)-4-morpholino-4-oxo-2-((S)-tetrahydro-2H-pyran-2-carboxamido)butanamido)-4-phenylbutyl)boronic acid]"

row,SMILES,IC50 [nM]
1,"CC(C)(C)OC(=O)N(Cc1ccccc1)[C@H](CC(=O)N1CCOCC1)C(=O)N[C@@H](CCCc1ccccc1)B(O)O [Compound 34, ((R)-1-((R)-2-(benzyl(tert-butoxycarbonyl)amino)-4-morpholino-4-oxobutanamido)-4-phenylbutyl)boronic acid]",500 to 5000
2,"CC(C)(C)OC(=O)N(CCc1ccccc1)[C@H](CC(=O)N1CCOCC1)C(=O)N[C@@H](CCCc1ccccc1)B(O)O [Compound 41, ((R)-1-((R)-2-((tert-butoxycarbonyl)(phenethyl)amino)-4-morpholino-4-oxobutanamido)-4-phenylbutyl)boronic acid]",500 to 5000
